5 compounds from ChEMBL document CHEMBL1134787, “Synthesis and biological studies of novel nucleoside phosphoramidate prodrugs” (J Med Chem, 2001) can be followed below.

Assay [1] concerns L1210. As to the kind of experiment: Growth inhibition in L1210 mouse leukemia cells after 24 h treatment. The assay is classed as functional, cell-based. The settings on record: L1210, 24 h.
The target in assay [2] is T1, Thymidylate synthase (Mus musculus, UniProt P07607). As to the kind of experiment: Thymidylate synthase inhibition in L1210 mouse leukemia cells after 2 hr treatment. It is filed as cell-based.
T1 sequence (P07607 whole entry): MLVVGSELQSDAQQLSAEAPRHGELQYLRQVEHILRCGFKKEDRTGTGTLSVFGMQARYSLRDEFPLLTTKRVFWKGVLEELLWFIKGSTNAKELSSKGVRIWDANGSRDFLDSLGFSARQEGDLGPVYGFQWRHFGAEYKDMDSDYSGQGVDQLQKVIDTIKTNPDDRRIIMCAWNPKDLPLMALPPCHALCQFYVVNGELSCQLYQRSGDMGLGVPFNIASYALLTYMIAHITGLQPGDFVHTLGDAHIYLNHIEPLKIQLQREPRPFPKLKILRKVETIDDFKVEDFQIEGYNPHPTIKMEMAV
The test system of assay [3] is L1210. As to the kind of experiment: Growth inhibition in L1210 mouse leukemia cells after 8 h treatment. The assay is classed as functional, cell-based. Conditions: L1210, 8 h.
In assay [4] the target is T1, Thymidylate synthase. Put plainly: Thymidylate synthase inhibition in thymidine kinase deficient LM cells after 2 hr treatment. The assay is classed as cell-based.
The target in assay [5] is T1, Thymidylate synthase. Put plainly: Thymidylate synthase inhibition in wild type LM cells after 2 hr treatment. The assay is classed as cell-based.
Assay [6] has as its system L1210. Put plainly: Growth inhibition in L1210 mouse leukemia cells after 48 hr treatment. The assay is classed as functional, cell-based. The settings on record: L1210, 48 h.
In assay [7] the target is T1, Thymidylate synthase. As to the kind of experiment: Thymidylate synthase inhibition in thymidine kinase deficient /TK cells after 2 hr treatment.
The test system of assay [8] is L1210. Put plainly: Growth inhibition in L1210 mouse leukemia cells after 2 hr treatment. It is filed as functional, cell-based. Conditions: L1210, 2 h.

`CN(CCCCCl)P(=O)(OCC1=CC(=O)c2ccccc2C1=O)OC[C@H]1O[C@@H](n2cc(F)c(=O)[nH]c2=O)C[C@@H]1O` (some centres not stated): the IC50 in the assay with L1210 [1] amounted to 0.0031 µM; against Thymidylate synthase [2] it was 0.01 µM; with L1210 [3], 0.016 µM; on Thymidylate synthase [4], 5.9 µM; against Thymidylate synthase [5] it was 0.23 µM; in the assay on L1210 [6], 0.00063 µM. Besides, the IC50 against Thymidylate synthase [7] came out at 0.025 µM; with L1210 [8], 0.044 µM.

In the case of `CN(CCBr)P(=O)(OCc1ccc([N+](=O)[O-])o1)OC[C@H]1O[C@@H](n2cc(F)c(=O)[nH]c2=O)C[C@@H]1O` (some centres not stated), the IC50 in the assay with L1210 [1] was 0.056 µM; with L1210 [3], 0.347 µM; with L1210 [6], 0.016 µM; with L1210 [8] it was 1.03 µM.

For the compound `CN(CCCCCl)P(=O)(OCc1ccc([N+](=O)[O-])o1)OC[C@H]1O[C@@H](n2cc(F)c(=O)[nH]c2=O)C[C@@H]1O` (some centres not stated), the IC50 with L1210 [1] was determined as 0.0072 µM; against Thymidylate synthase [2], 0.065 µM; in the assay with L1210 [3] it was 0.047 µM; at Thymidylate synthase [4], 1.06 µM; against Thymidylate synthase [5], 0.56 µM; in the assay on L1210 [6], 0.0023 µM. Moreover, the IC50 at Thymidylate synthase [7] came out at 0.0019 µM; in the assay with L1210 [8] it was 0.116 µM.

As for `O=c1[nH]c(=O)n([C@H]2C[C@H](O)[C@@H](CO)O2)cc1F` [FLOXURIDINE], the IC50 is 0.0041 µM in the assay on L1210 [1]; 0.0079 µM against Thymidylate synthase [2]; 0.023 µM in the assay on L1210 [3]; 5.4 µM at Thymidylate synthase [4]; 0.26 µM against Thymidylate synthase [5]; 0.00064 µM in the assay on L1210 [6]. The IC50 against Thymidylate synthase [7] turned out to be 0.02 µM; in the assay with L1210 [8] it was 0.045 µM.

For `O=c1[nH]cc(F)c(=O)[nH]1` [FLUOROURACIL], the half-maximal inhibitory concentration (IC50) in the assay with L1210 [1] was found to be 0.36 µM; in the assay on L1210 [3], 1.01 µM; in the assay with L1210 [6], 0.2 µM; with L1210 [8], 2.5 µM.

The term IC50 denotes the concentration that inhibits the measured activity by half. A higher IC50 goes with a need for much substance.
